From patent US20240124470A1, “FIVE-MEMBERED RING DERIVATIVE AND MEDICAL USE THEREOF” (SICHUAN HAISCO PHARMACEUTICAL CO., LTD., priority 2020, published 2024)
Where a name gives a salt, the structure may show the parent alone. Read-outs that look alike come from different tables or passages of the source.

Molecular target: T1, GLP-1 receptor (Homo sapiens, UniProt P43220)
T1 construct: expressed in transfected cells
Test: HEK293/CRE-luc/GLP-1R cell luciferase reporter test (agonistic effect on GLP-1 receptor)
Format: cell-based
Conditions: HEK293/CRE-luc/GLP-1R cells
Method: 1. HEK293/CRE-luc/GLP-1β cell viability
Cell: HEK293/CRE-luc/GLP-1R
Cell culture medium: DMEM+10% FBS+400 μg/ml G418+100 μg/ml Hygromycin B
Frozen stock solution: 90% FBS, 10% (V/V) DMSO
Detection buffer: DMEM+1% FBS
Cells were cultured in DMEM medium+10% FBS+400 μg/ml G418+100 μg/ml Hygromycin B in a CO2 incubator at 37° C., and passaged once every 3-4 days.
Cell plating: Trypsinization adjusted the cell density to 1.67×10^5 cells/mL; 60 μL of cells per well (10000 cells/well) was inoculated in a 384-well plate containing compounds; A NC well (negative control) and a background well (no cells) were set. Incubation was performed for about 18+2 h in the incubator.
Compounds were serially diluted with the detection buffer, and the detection concentration was 0.01 nM-1000 nM.
The cell culture plate was removed and all supernatant was aspirated from the cells. The cells were washed gently 2 times with 1×PBS.
The diluted compound was added to a 384-well plate (10 μL/well), and three replicate wells were set for each concentration. 10 μL of the detection buffer was added to the NC well, sealed and incubated at 37° C. for 6 hours.
The plate was removed, the cells were allowed to equilibrate to room temperature (at least 15 min), and then all supernatant was aspirated from the cells.
Steady-Glo® Reagent was added to the sample well at 10 μL/well and incubated at room temperature for 5 min to lyse the cells.
The test results were read with a BMG microplate reader.
The mean background value was calculated.
The induction factor (Fold of induction, FI)=(induction well value−background value)/(negative control well value −background value) was calculated.
The EC50 value of the sample was calculated using Graphpad Prim 8.0 software using four-parameter fitting analysis.
Mean and standard error (Mean±SEM) were calculated for all results and Graphpad Prism software was used for statistical analysis. Specific data were presented in the form of graphs. P<0.05 was considered to be statistically different.

[1] = 6 hours incubation, class symbols, read-out: EC50
[2] = bound stated, read-out: EC50 value

T1 sequence (P43220 24-463): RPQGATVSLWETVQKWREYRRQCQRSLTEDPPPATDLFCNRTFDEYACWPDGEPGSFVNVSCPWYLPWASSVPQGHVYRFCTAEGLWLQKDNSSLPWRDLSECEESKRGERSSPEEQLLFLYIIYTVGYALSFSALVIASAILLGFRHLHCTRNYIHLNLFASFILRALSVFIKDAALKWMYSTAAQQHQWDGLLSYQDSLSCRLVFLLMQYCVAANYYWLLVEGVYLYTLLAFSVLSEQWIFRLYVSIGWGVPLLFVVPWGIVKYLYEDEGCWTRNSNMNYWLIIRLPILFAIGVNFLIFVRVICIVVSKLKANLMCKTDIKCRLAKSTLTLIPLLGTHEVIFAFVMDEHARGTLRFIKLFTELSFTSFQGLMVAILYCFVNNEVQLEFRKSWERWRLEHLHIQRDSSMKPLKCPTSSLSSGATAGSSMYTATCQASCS

EC50 [1] [nM]	EC50 [2] [nM]	SMILES
< 10	< 10	CC1(c2ccc(Cl)cc2F)Oc2cccc(C3CCN(Cc4nc5sc(C(=O)O)cc5n4C[C@@H]4CCO4)CC3)c2O1 (stereo partly drawn) [Compound 4, 2-((4-(2-(4-chloro-2-fluorophenyl)-2-methylbenzo[d][1,3]dioxol-4-yl)piperidin-1-yl)methyl)-1-(((S)-oxetan-2-yl)methyl)-1H-thieno[2,3-d]imidazole-5-carboxylic acid]
< 10	< 10	CC1(c2ccc(C#N)cc2F)Oc2cccc(C3CCN(Cc4nc5sc(C(=O)O)cc5n4C[C@@H]4CCO4)CC3)c2O1 (stereo partly drawn) [Compound 5, 2-((4-(2-(4-cyano-2-fluorophenyl)-2-methylbenzo[d][1,3]dioxol-4-yl)piperidin-1-yl)methyl)-1-(((S)-oxetan-2-yl)methyl)-1H-thieno[2,3-d]imidazole-5-carboxylic acid]
< 10	< 10	N#Cc1ccc(COc2cccc(-c3ccc(Cc4nc5sc(C(=O)O)cc5n4C[C@@H]4CCO4)cc3)n2)c(F)c1 [Compound 7, (S)-2-(4-(6-((4-cyano-2-fluorobenzyl)oxy)pyridin-2-yl)benzyl)-1-(oxetan-2-ylmethyl)-1H-thieno[2,3-d]imidazole-5-carboxylic acid]
< 10	< 10	Cc1cc(Cc2nc3sc(C(=O)O)cc3n2C[C@@H]2CCO2)c(F)cc1-c1cccc(OCc2ccc(C#N)cc2F)n1 [Compound 8, (S)-2-(4-(6-((4-cyano-2-fluorobenzyl)oxy)pyridin-2-yl)-2-fluoro-5-methylbenzyl)-1-(oxetan-2-ylmethyl)-1H-thieno[2,3-d]imidazole-5-carboxylic acid]
< 10	< 10	N#Cc1ccc(COc2cccc(-c3cnn(Cc4nc5sc(C(=O)O)cc5n4C[C@@H]4CCO4)c(=O)c3)n2)c(F)c1 [Compound 9, (S)-2-((4-(6-((4-cyano-2-fluorobenzyl)oxy)pyridin-2-yl)-6-oxopyridazin-1(6H)-yl)methyl)-1-(oxetan-2-ylmethyl)-1H-thieno[2,3-d]imidazole-5-carboxylic acid]
< 10	< 10	CC1(c2ccc(Cl)cc2F)Oc2cccc(-c3ccc(Cc4nc5sc(C(=O)O)cc5n4C[C@@H]4CCO4)c(F)c3)c2O1 (stereo partly drawn) [Compound 10, 2-(4-(2-(4-chloro-2-fluorophenyl)-2-methylbenzo[d][1,3]dioxol-4-yl)-2-fluorobenzyl)-1-(((S)-oxetan-2-yl)methyl)-1H-thieno[2,3-d]imidazole-5-carboxylic acid]
< 10	< 10	CC1(c2ccc(Cl)cc2F)Oc2cccc(-c3ccc(Cc4nc5sc(C(=O)O)cc5n4C[C@@H]4CCO4)cc3)c2O1 (stereo partly drawn) [Compound 11, 2-(4-(2-(4-chloro-2-fluorophenyl)-2-methylbenzo[d][1,3]dioxol-4-yl)benzyl)-1-(((S)-oxetan-2-yl)methyl)-1H-thieno[2,3-d]imidazole-5-carboxylic acid]
< 10	< 10	N#Cc1ccc(COc2cccc(C3CCN(Cc4nc5sc(C(=O)O)cc5n4C[C@@H]4CCCO4)CC3)n2)c(F)c1 [Compound 12, (S)-2-((4-(6-((4-cyano-2-fluorobenzyl)oxy)pyridin-2-yl)piperidin-1-yl)methyl)-1-((tetrahydrofuran-2-yl)methyl)-1H-thieno[2,3-d]imidazole-5-carboxylic acid]
< 10	< 10	N#Cc1ccc(COc2cccc(N3CCN(Cc4nc5sc(C(=O)O)cc5n4C[C@@H]4CCO4)CC3)n2)c(F)c1 [Compound 13, (S)-2-((4-(6-((4-cyano-2-fluorobenzyl)oxy)pyridin-2-yl)piperazin-1-yl)methyl)-1-(oxetan-2-ylmethyl)-1H-thieno[2,3-d]imidazole-5-carboxylic acid]
< 10	< 10	N#Cc1ccc(COc2ncccc2C2CCN(Cc3nc4sc(C(=O)O)cc4n3C[C@@H]3CCO3)CC2)c(F)c1 [Compound 15, (S)-2-((4-(2-((4-cyano-2-fluorobenzyl)oxy)pyridin-3-yl)piperidin-1-yl)methyl)-1-(oxetan-2-ylmethyl)-1H-thieno[2,3-d]imidazole-5-carboxylic acid]
< 10	< 10	N#Cc1ccc(COc2cccc(C3CCN(Cc4nc5cc(C(=O)O)sc5n4C[C@@H]4CCO4)CC3)n2)c(F)c1 [Compound 16, (S)-2-((4-(6-((4-cyano-2-fluorobenzyl)oxy)pyridin-2-yl)piperidin-1-yl)methyl)-3-(oxetan-2-ylmethyl)-3H-thieno[2,3-d]imidazole-5-carboxylic acid]
< 10	< 10	N#Cc1ccc(COc2nc(C3CCN(Cc4nc5sc(C(=O)O)cc5n4C[C@@H]4CCO4)CC3)ccc2F)c(F)c1 [Compound 17, (S)-2-((4-(6-((4-cyano-2-fluorobenzyl)oxy)-5-fluoropyridin-2-yl)piperidin-1-yl)methyl)-1-(oxetan-2-ylmethyl)-1H-thieno[2,3-d]imidazole-5-carboxylic acid]
< 10	< 10	N#Cc1ccc(COc2nc(-c3ccc(Cc4nc5sc(C(=O)O)cc5n4C[C@@H]4CCO4)c(F)c3)ccc2F)c(F)c1 [Compound 18, (S)-2-(4-(6-((4-cyano-2-fluorobenzyl)oxy)-5-fluoropyridin-2-yl)-2-fluorobenzyl)-1-(oxetan-2-ylmethyl)-1H-thieno[2,3-d]imidazole-5-carboxylic acid]
< 10	< 10	N#Cc1ccc(COc2cccc(-c3ccc(Cc4nc5sc(C(=O)O)cc5n4C[C@@H]4CCO4)c(F)c3)n2)cc1 [Compound 20, (S)-2-(4-(6-((4-cyanobenzyl)oxy)pyridin-2-yl)-2-fluorobenzyl)-1-(oxetan-2-ylmethyl)-1H-thieno[2,3-d]imidazole-5-carboxylic acid]
< 10	< 10	N#Cc1ccc(COc2cccc(-c3cc(F)c(Cc4nc5sc(C(=O)O)cc5n4C[C@@H]4CCO4)cc3F)n2)c(F)c1 [Compound 21, (S)-2-(4-(6-((4-cyano-2-fluorobenzyl)oxy)pyridin-2-yl)-2,5-difluorobenzyl)-1-(oxetan-2-ylmethyl)-1H-thieno[2,3-d]imidazole-5-carboxylic acid]
< 10	< 10	N#Cc1ccc(COc2nc(-c3cc(F)c(Cc4nc5sc(C(=O)O)cc5n4C[C@@H]4CCO4)cc3F)ccc2F)c(F)c1 [Compound 22, (S)-2-(4-(6-((4-cyano-2-fluorobenzyl)oxy)-5-fluoropyridin-2-yl)-2,5-difluorobenzyl)-1-(oxetan-2-ylmethyl)-1H-thieno[2,3-d]imidazole-5-carboxylic acid]
< 10	< 10	N#Cc1ccc(COc2cccc(-c3cc(F)c(Cc4nc5sc(C(=O)O)cc5n4C[C@@H]4CCO4)cc3F)n2)cc1 [Compound 23, (S)-2-(4-(6-((4-cyanobenzyl)oxy)pyridin-2-yl)-2,5-difluorobenzyl)-1-(oxetan-2-ylmethyl)-1H-thieno[2,3-d]imidazole-5-carboxylic acid]
< 10	< 10	CC1(c2ccc(Cl)cn2)Oc2cccc(C3CCN(Cc4nc5sc(C(=O)O)cc5n4C[C@@H]4CCO4)CC3)c2O1 (stereo partly drawn) [Compound 24, 2-((4-(2-(5-chloropyridin-2-yl)-2-methylbenzo[d][1,3]dioxol-4-yl)piperidin-1-yl)methyl)-1-(((S)-oxetan-2-yl)methyl)-1H-thieno[2,3-d]imidazole-5-carboxylic acid]
< 10	< 10	N#Cc1ccc(COc2cccc(C3CCN(Cc4nc5sc(C(=O)O)cc5n4C[C@@H]4CCO4)CC3)n2)c(F)c1 [Trifluoroacetate salt of compound 1, (S)-2-((4-(6-((4-cyano-2-fluorobenzyl)oxy)pyridin-2-yl)piperidin-1-yl)methyl)-1-(oxetan-2-ylmethyl)-1H-thieno[2,3-d]imidazole-5-carboxylic acid]
< 10	< 10	N#Cc1ccc(COc2cccc(C3=CCN(Cc4nc5sc(C(=O)O)cc5n4C[C@@H]4CCO4)CC3)n2)c(F)c1 [Trifluoroacetate salt of compound 2, (S)-2-((6-((4-cyano-2-fluorobenzyl)oxy)-3′,6′-dihydro-[2,4′-bipyridin]-1′(2′H)-yl)methyl)-1-(oxetan-2-ylmethyl)-1H-thieno[2,3-d]imidazole-5-carboxylic acid]
< 10	< 10	C[C@H]1CN(c2cccc(OCc3ccc(C#N)cc3F)n2)CCN1Cc1nc2sc(C(=O)O)cc2n1C[C@@H]1CCO1 [Trifluoroacetate salt of compound 3, 2-(((S)-4-(6-((4-cyano-2-fluorobenzyl)oxy)pyridin-2-yl)-2-methylpiperazin-1-yl)methyl)-1-(((S)-oxetan-2-yl)methyl)-1H-thieno[2,3-d]imidazole-5-carboxylic acid]
